The subject of this assay is αMI-domain (active and nonactive forms). Kind of assay: Solid-phase binding of active and nonactive GST-αMI-domains. Particulars: immobilized peptide, 1.5 h at 22 °C, anti-GST detection, 405 nm; means of triplicates, representative of n = 4. The protocol:
Fig. 2 Binding of the active and nonactive αMI-domain conformers to dynorphin. a, the 3D structure of active (PDB ID 1ido) and nonactive (PDB ID 1jlm) αMI-domains are shown as ribbon diagrams. The wells of microtiter plates were coated with different concentrations of dynorphin A (b) and the D100 fragment of fibrinogen (c). The active (●) and nonactive (○) recombinant αMI-domains containing GST fusion parts were added to the wells and incubated for 1.5 h at 22 °C. Bound αMI-domains were detected with an anti-GST mAb followed by an AP-conjugated secondary antibody. Data are the means of triplicate determinations, and error bars represent S.E. Representative experiments in b (n = 4) and c (n = 4) are shown. For multiple comparisons, individual concentrations were tested using t-test with p-value of 0.05 corrected by Bonferroni method and accepting values of 0.007 as significant (**).
Dyn A ([…]), Dyn B ([…]), and control peptide ([…]) were purchased from AnaSpec, Inc (San Jose, CA). […]
Microtiter plates were coated with different concentrations of the fibrinogen D100 fragment or Dyn A overnight at 4 °C and post-coated with 3 % BSA for 1 h. […] After washing, goat anti-mouse IgG conjugated to alkaline phosphatase was added for 1 h and the binding of the αMI-domains was detected by reaction with p-nitrophenyl phosphate measuring the absorbance at 405 nm. […]

With `CC[C@H](C)[C@H](NC(=O)[C@H](CCCNC(=N)N)NC(=O)[C@H](CCCNC(=N)N)NC(=O)[C@H](CC(C)C)NC(=O)[C@H](Cc1ccccc1)NC(=O)CNC(=O)CNC(=O)[C@@H](N)Cc1ccc(O)cc1)C(=O)N[C@@H](CCCNC(=N)N)C(=O)N1CCC[C@H]1C(=O)N[C@@H](CCCCN)C(=O)N[C@@H](CC(C)C)C(=O)N[C@@H](CCCCN)C(=O)N[C@@H](Cc1c[nH]c2ccccc12)C(=O)N[C@@H](CC(=O)O)C(=O)N[C@@H](CC(N)=O)C(=O)N[C@@H](CCC(N)=O)C(=O)O` [Dyn A], the “Difference in binding of active and nonactive αMI-domains” value is “No significant difference in binding of active and nonactive αMI-domains”.

These data come from article PMC4481117 (Molecular Pain, 2015).
